Experimental data from US20250288571A1 (Nested Therapeutics, Inc., priority 2024, published 2025).
Several values for one entry are separate records, joined by “and”; a condition that tells them apart may be missing. Equal entries are not always repeated. Where two headings read alike, the source gives them in different places.

Columns and labels:
[1] = tested on: HCT116 cells; test: HCT116 Cell Titer Glow assay (CTG); conditions: for CTG % cell viability 1000 uM HCT116.20: HCT116 cells, 72 hours; for IC50 / viability at 1000 µM: Homo sapiens, HCT-116, 72 h; for IC50: read-out: CTG IC50 (nM) Cell Line: HCT116.20
Method: (§1) HCT116 and IPC298 Cell Titer Glow Assay (CTG)
(§2) HCT116 cells and IPC298 cells were diluted with culture medium to the desired density 500 cells/well and 40 μL of cell suspension were added into each well of 384-well cell culture plate. […] The plates were covered and stored at room temperature for 30 minutes without shaking and then the plates were transferred into a 37° C. 5% CO2 incubator overnight.
(§3) A 10 mM solution in dimethyl sulfoxide (DMSO) was prepared for each test compound. A 3 fold, 10-point dilution was prepared from the stock solution. 40 nl of each solution in 100% DMSO was added to the 384-well plate and diluted to a final 0.1% DMSO final concentration. The plates were then incubated for 72 hours (for both cell lines) at 37° C.
(§4) CellTiter-Glo® 2.0 Reagent (Promega, G9242) was removed from the refrigerator and equilibrated at room temperature (23° C.) for 60 minutes. The plates were then removed from the incubator and allowed to equilibrate to room temperature. 30 μL CellTiter-Glo® 2.0 Reagent were added to the assay plates, and spun 1 min/1000 rpm. The plates were allowed to stand for about 20 minutes before being read on Envision using a standard luminescence readout. DMSO was employed as negative control (High control, HC) and 1 uM Staurosporine was employed as positive control (Low control, LC).
(§5) The percent (%) inhibition at each concentration of compound was calculated based on the signal in the negative and positive control wells contained within each assay plate.

[2] = tested on: IPC298 cells; test: IPC298 Cell Titer Glow assay (CTG); conditions: for IC50: read-out: CTG IC50 (nM) Cell Line: IPC298.2
Method: as §1, §2, §3, §4, §5

[3] = percent cells remaining after treatment
[4] = read-out: CTG % cell viability 1000 uM HCT116.20, HCT116 cells, 72 hours, 1000 uM, percent cells remaining after treatment
[5] = Homo sapiens, IPC-298, 72 h, read-out: CTG % cell viability 100 uM IPC298.2, IPC298 cells, 72 hours, 100 uM, percent cells remaining after treatment

Structure (SMILES) | IC50 [1] [nM] | IC50 ([2]; Homo sapiens, IPC-298, 72 h) [nM] | further results
CNS(=O)(=O)Nc1ccc(Cc2cncc(Oc3ncc(Cl)cc3F)c2C)cn1 [Example 46, 5-[[5-[(5-chloro-3-fluoro-2-pyridyl)oxy]-4-methyl-3-pyridyl]methyl]-N-(methylsulfamoyl)pyridin-2-amine] | > 1000 | > 1000 | CTG % cell viability 1000 uM HCT116.20 [1, 3]: 82.81, % and 79.54%; CTG % cell viability 1000 uM IPC298.2 ([2]; IPC298 cells, 72 hours, 1000 uM, percent cells remaining after treatment): 19.34%
CC#CCOc1cncc(Cc2ccnc(NS(=O)(=O)NC)c2F)c1C [Example 75, 4-[(5-but-2-ynoxy-4-methyl-3-pyridyl)methyl]-3-fluoro-N-(methylsulfamoyl)pyridin-2-amine] | > 1000 | > 1000 | viability at 1000 µM [1, 4]: 89.1%; viability at 100 µM [2, 5]: 87.5%
CNS(=O)(=O)Nc1nccc(Cc2cccc3c2CCCN3c2ccc(Cl)cc2F)c1F [Example 87, 4-[[1-(4-chloro-2-fluoro-phenyl)-3,4-dihydro-2H-quinolin-5-yl]methyl]-3-fluoro-N-(methylsulfamoyl)pyridin-2-amine] | > 1000 | > 1000 | viability at 1000 µM [1, 4]: 95%; viability at 100 µM [2, 5]: 101%
CNS(=O)(=O)Nc1nccc(Cc2cncc(OC3CC4(C3)CN(C)C4)c2C)c1F [Example 92, 3-fluoro-4-[[4-methyl-5-[(2-methyl-2-azaspiro[3.3]heptan-6-yl)oxy]-3-pyridyl]methyl]-N-(methylsulfamoyl)pyridin-2-amine] | > 1000 | > 1000 | viability at 1000 µM ([1]; read-out: CTG % cell viability 1000 uM HCT116.20): 103%; viability at 100 µM ([2]; Homo sapiens, IPC-298, 72 h, read-out: CTG % cell viability 100 uM IPC298.2): 101%
CNS(=O)(=O)Nc1nccc(Cc2cncc(OC3CCC(C)(C)CC3)c2C)c1F [Example 73, 4-[[5-(4,4-dimethylcyclohexoxy)-4-methyl-3-pyridyl]methyl]-3-fluoro-N-(methylsulfamoyl)pyridin-2-amine] | > 1000 | > 1000 | viability at 1000 µM [1, 4]: 75.4%; viability at 100 µM [2, 5]: 80.8%
CNS(=O)(=O)Nc1nccc(Cc2cncc(Nc3ncc(Cl)cc3F)c2C)c1F [Example 62, 4-[[5-[(5-chloro-3-fluoro-2-pyridyl)amino]-4-methyl-3-pyridyl]methyl]-3-fluoro-N-(methylsulfamoyl)pyridin-2-amine] | > 1000 | 10 to 100 | viability at 1000 µM [1, 4]: 46.4%
CNS(=O)(=O)Nc1nccc(Cc2cncc(Oc3ccc(Cl)cc3F)c2C)c1F [Example 49, [(4-{[5-(4-chloro-2-fluorophenoxy)-4-methylpyridin-3-yl]methyl}-3-fluoropyridin-2-yl)sulfamoyl](methyl)amine] | 10 to 100 | < 10 | –
CNS(=O)(=O)Nc1nccc(Cc2cncc(Oc3ccc(C)cc3F)c2C)c1OC [Example 91, 4-[[5-(2-fluoro-4-methyl-phenoxy)-4-methyl-3-pyridyl]methyl]-3-methoxy-N-(methylsulfamoyl)pyridin-2-amine] | 10 to 100 | < 10 | –
CNS(=O)(=O)Nc1nccc(Cc2cncc(Oc3ccc(S(C)(=O)=O)cc3)c2C)c1F [Example 72, [(3-fluoro-4-{[5-(4-methanesulfonylphenoxy)-4-methylpyridin-3-yl]methyl}pyridin-2-yl)sulfamoyl](methyl)amine] | 500 to 1000 | 10 to 100 | –
CNS(=O)(=O)Nc1nccc(Oc2cncc(Oc3ccc(Br)cc3F)c2C)c1F [Example 100, 4-[[5-(4-bromo-2-fluoro-phenoxy)-4-methyl-3-pyridyl]oxy]-3-fluoro-N-(methylsulfamoyl)pyridin-2-amine] | 10 to 100 | < 10 | –
CNS(=O)(=O)Nc1nccc(Cc2cncc(Oc3ccc(C)c(F)c3)c2C)c1F [Example 103, 3-fluoro-4-[[5-(3-fluoro-4-methyl-phenoxy)-4-methyl-3-pyridyl]methyl]-N-(methylsulfamoyl)pyridin-2-amine] | 100 to 500 | < 10 | –
CCNS(=O)(=O)Nc1nccc(Cc2cncc(Nc3ccc(C)cc3F)c2C)c1F [Example 95, N-(ethylsulfamoyl)-3-fluoro-4-[[5-(2-fluoro-4-methyl-anilino)-4-methyl-3-pyridyl]methyl]pyridin-2-amine] | 10 to 100 | < 10 | –
CNS(=O)(=O)Nc1nccc(Cc2cncc(Nc3ccc(C(C)C)cc3F)c2C)c1F [Example 58, 3-fluoro-4-[[5-(2-fluoro-4-isopropyl-anilino)-4-methyl-3-pyridyl]methyl]-N-(methylsulfamoyl)pyridin-2-amine] | < 10 | < 10 | –
CNS(=O)(=O)Nc1nccc(Cc2cncc(Oc3cccc(Cl)c3F)c2)c1F [Example 54, 4-[[5-(3-chloro-2-fluoro-phenoxy)-3-pyridyl]methyl]-3-fluoro-N-(methylsulfamoyl)pyridin-2-amine] | > 1000 | > 1000 | viability at 1000 µM [1, 4]: 81.2%; viability at 1000 µM ([2]; Homo sapiens, IPC-298, 72 h, read-out: CTG % cell viability 1000 uM IPC298.2, IPC298 cells, 72 hours, 1000 uM, percent cells remaining after treatment): 70.1%
CCc1c(Cc2ccnc(NS(=O)(=O)NC)c2F)cncc1Oc1ccc(Cl)cc1 [Example 83, 4-[[5-(4-chlorophenoxy)-4-ethyl-3-pyridyl]methyl]-3-fluoro-N-(methylsulfamoyl)pyridin-2-amine] | 10 to 100 | < 10 | –
CNS(=O)(=O)Nc1nccc(Cc2cncc(-n3ccc4cc(Cl)ccc43)c2)c1F [Example 59, [(4-{[5-(5-chloroindol-1-yl)pyridin-3-yl]methyl}-3-fluoropyridin-2-yl)sulfamoyl](methyl)amine] | 100 to 500 | 10 to 100 | –
[2H]C([2H])([2H])c1ccc(Nc2cncc(Cc3ccnc(NS(=O)(=O)NC)c3F)c2C)c(F)c1 [Example 104, 3-fluoro-4-[[5-[2-fluoro-4-(trideuteriomethyl)anilino]-4-methyl-3-pyridyl]methyl]-N-(methylsulfamoyl)pyridin-2-amine] | < 10 | < 10 | –
CNS(=O)(=O)Nc1nccc(Oc2cncc(Nc3ccc(C4CC4)cc3F)c2C)c1F [Example 97, 4-[[5-(4-cyclopropyl-2-fluoro-anilino)-4-methyl-3-pyridyl]oxy]-3-fluoro-N-(methylsulfamoyl)pyridin-2-amine] | < 10 | < 10 | –
CNS(=O)(=O)Nc1nccc(Cc2cncc(O[C@H]3CC[C@H](C)CC3)c2C)c1F [Example 63, 3-fluoro-4-[[4-methyl-5-(4-methylcyclohexoxy)-3-pyridyl]methyl]-N-(methylsulfamoyl)pyridin-2-amine] | > 1000 | > 1000 | viability at 1000 µM [1, 4]: 71.5%; viability at 100 µM [2, 5]: 62.4%
CNS(=O)(=O)Nc1nccc(Cc2cncc(Nc3ccc(C4CC4)cc3F)c2C)c1F [Example 47, 4-[[5-(4-cyclopropyl-2-fluoro-anilino)-4-methyl-3-pyridyl]methyl]-3-fluoro-N-(methylsulfamoyl)pyridin-2-amine] | < 10 | < 10 | –
CNS(=O)(=O)Nc1nccc(Cc2cncc(Sc3ccc(Cl)cc3)c2C)c1F [Example 78, {[4-({5-[(4-chlorophenyl)sulfanyl]-4-methylpyridin-3-yl}methyl)-3-fluoropyridin-2-yl]sulfamoyl}(methyl)amine] | 100 to 500 | < 10 | –
CNS(=O)(=O)Nc1nccc(Oc2cncc(Oc3ccc(Cl)cc3)c2C)c1F [Example 77, 4-[[5-(4-chlorophenoxy)-4-methyl-3-pyridyl]oxy]-3-fluoro-N-(methylsulfamoyl)pyridin-2-amine] | 100 to 500 | < 10 | –
CNS(=O)(=O)Nc1nccc(Cc2cncc(-c3cc(Cl)ccc3F)c2C)c1F [Example 56, [(4-{[5-(5-chloro-2-fluorophenyl)-4-methylpyridin-3-yl]methyl}-3-fluoropyridin-2-yl)sulfamoyl](methyl)amine] | 100 to 500 | < 10 | –
Cc1c(Cc2ccnc(NS(=O)(=O)NC(C)C)c2F)cncc1Oc1ccc(Cl)cc1F [Example 90, 4-[[5-(4-chloro-2-fluoro-phenoxy)-4-methyl-3-pyridyl]methyl]-3-fluoro-N-(isopropylsulfamoyl)pyridin-2-amine] | > 1000 | 10 to 100 | viability at 1000 µM [1, 4]: 59.5%
CNS(=O)(=O)N1CCc2c(Cc3cncc(Nc4ccc(Cl)cc4F)c3C)ccnc21 [Example 43, 4-({5-[(4-chloro-2-fluorophenyl)amino]-4-methylpyridin-3-yl}methyl)-N-methyl-2H,3H-pyrrolo[2,3-b]pyridine-1-sulfonamide] | 10 to 100 | < 10 | –
CNS(=O)(=O)Nc1nccc(Oc2cncc(Oc3ccc(C)cc3Cl)c2C)c1F [Example 84, 4-[[5-(2-chloro-4-methyl-phenoxy)-4-methyl-3-pyridyl]oxy]-3-fluoro-N-(methylsulfamoyl)pyridin-2-amine] | 500 to 1000 | < 10 | –
CNS(=O)(=O)Nc1nccc(Cc2cncc(-c3cccc(Cl)c3F)c2C)c1F [Example 57, [(4-{[5-(3-chloro-2-fluorophenyl)-4-methylpyridin-3-yl]methyl}-3-fluoropyridin-2-yl)sulfamoyl](methyl)amine] | > 1000 | 10 to 100 | CTG % cell viability 1000 uM HCT116.20 [1, 3]: 45.51%; viability at 1000 µM [1, 4]: 56.8%
CNS(=O)(=O)Nc1nccc(Cc2cncc(Oc3ccc(C(F)F)cc3F)c2C)c1F [Example 65, 4-[[5-[4-(difluoromethyl)-2-fluoro-phenoxy]-4-methyl-3-pyridyl]methyl]-3-fluoro-N-(methylsulfamoyl)pyridin-2-amine] | 10 to 100 | < 10 | –
